Assay results from patent US8993586B2, “N1/N2-lactam acetyl-CoA carboxylase inhibitors” (Pfizer Inc., priority 2010, dated 2015).
pIC50: −log10 of the molar value.

How the values were obtained:
[1] = target: recombinant human ACC2 (rhACC2) (Homo sapiens (Human), UniProt O00763); test: recombinant hACC2 Transcreener ADP detection FP assay; type: biochemical; conditions: 50 uM ATP, 50 min at 25° C.
Description: (§1) For example direct inhibition of ACC activity, for the compound of Formula (I) was determined using preparations of recombinant human ACC1 (rhACC1) and recombinant human ACC2 (rhACC2).
[3] Preparation of rhACC2. Human ACC2 inhibition was measured using purified recombinant human ACC2 (hrACC2). Briefly, a full length Cytomax clone of ACC2 was purchased from Cambridge Bioscience Limited and was sequenced and subcloned into PCDNA5 FRT TO-TOPO (Invitrogen, Carlsbad, Calif.). The ACC2 was expressed in CHO cells by tetracycline induction and harvested in 5 liters of DMEM/F12 with glutamine, biotin, hygromycin and blasticidin with 1 μg/mL tetracycline (Invitrogen, Carlsbad, Calif.). The conditioned medium containing ACC2 was then applied to a Softlink Soft Release Avidin column (Promega, Madison, Wis.) and eluted with 5 mM biotin. […] The purified ACC2 was dialyzed in 50 mM Tris, 200 mM NaCl, 4 mM DTT, 2 mM EDTA, and 5% glycerol. […] For measurement of ACC2 activity and assessment of ACC2 inhibition, test compounds were dissolved in DMSO and added to the rhACC2 enzyme as a 5× stock with a final DMSO concentration of 1%.
[4] Measurement of human ACC2 inhibition. hACC2 was assayed in a Costar #3676 (Costar, Cambridge, Mass.) 384-well plate using the Transcreener ADP detection FP assay kit (Bellbrook Labs, Madison, Wis.) using the manufacturer's recommended conditions for a 50 uM ATP reaction. The final conditions for the assay were 50 mM HEPES, pH 7.2, 5 mM MgCl2, 5 mM tripotassium citrate, 2 mM DTT, 0.1 mg/mL BSA, 30 μM acetyl-CoA, 50 μM ATP, and 8 mM KHCO3 Typically, a 10 μl reaction was run for 50 min at 25° C., and 10 μl of Transcreener stop and detect buffer was added and the combination incubated at room temp for an additional 1 hour. The data was acquired on an Envision Fluorescence reader (PerkinElmer) using a 620 excitation Cy5 FP general dual mirror, 620 excitation Cy5 FP filter, 688 emission (S) and a 688 (P) emission filter.

[2] = target: recombinant human ACC1 (rhACC1) (Homo sapiens (Human), UniProt Q13085); test: recombinant hACC1 Transcreener ADP detection FP assay; type: biochemical; conditions: 50 μM ATP, 120 min at 25° C.
Description: as §1
[1] Preparation of rhACC1. Two liters of SF9 cells, infected with recombinant baculovirus containing full length human ACC1 cDNA, were suspended in ice-cold lysis buffer (25 mM Tris, pH 7.5; 150 mM NaCl; 10% glycerol; 5 mM imidazole (EMD Bioscience; Gibbstown, N.J.); 2 mM TCEP (BioVectra; Charlottetown, Canada); Benzonase nuclease (10000 U/100 g cell paste; Novagen; Madison, Wis.); EDTA-free protease inhibitor cocktail (1 tab/50 mL; Roche Diagnostics; Mannheim, Germany). Cells were lysed by 3 cycles of freeze-thaw and centrifuged at 40,000×g for 40 minutes (4° C.). Supernatant was directly loaded onto a HisTrap FF crude column (GE Healthcare; Piscataway, N.J.) and eluted with an imidazole gradient up to 0.5 M over 20 column volumes (CV). ACC1-containing fractions were pooled and diluted 1:5 with 25 mM Tris, pH 7.5, 2 mM TCEP, 10% glycerol and direct loaded onto a CaptoQ (GE Healthcare) column and eluted with an NaCl gradient up to 1 M over 20 CV's. Phosphate groups were removed from purified ACC1 by incubation with lambda phosphatase (100 U/10 μM target protein; New England Biolabs; Beverly, Mass.) for 14 hours at 4° C.; okadaic acid was added (1 μM final concentration; Roche Diagnostics) to inhibit the phosphatase. Purified ACC1 was exchanged into 25 mM Tris, pH 7.5, 2 mM TCEP, 10% glycerol, 0.5 M NaCl by 6 hour dialysis at 4° C. Aliquots were prepared and frozen at −80° C.
[2] Measurement of rhACC1 inhibition. hACC1 was assayed in a Costar #3676 (Costar, Cambridge, Mass.) 384-well plate using the Transcreener ADP detection FP assay kit (Bellbrook Labs, Madison, Wis.) using the manufacturer's recommended conditions for a 50 μM ATP reaction. The final conditions for the assay were 50 mM HEPES, pH 7.2, 10 mM MgCl2, 7.5 mM tripotassium citrate, 2 mM DTT, 0.1 mg/mL BSA, 30 μM acetyl-CoA, 50 μM ATP, and 10 mM KHCO3 Typically, a 10 μl reaction was run for 120 min at 25° C., and 10 μl of Transcreener stop and detect buffer was added and the combination incubated at room temp for an additional 1 hour. The data was acquired on a Envision Fluorescence reader (PerkinElmer) using a 620 excitation Cy5 FP general dual mirror, 620 excitation Cy5 FP filter, 688 emission (S) and a 688 (P) emission filter.

recombinant human ACC2 (rhACC2), sequence (O00763 whole entry V2141I): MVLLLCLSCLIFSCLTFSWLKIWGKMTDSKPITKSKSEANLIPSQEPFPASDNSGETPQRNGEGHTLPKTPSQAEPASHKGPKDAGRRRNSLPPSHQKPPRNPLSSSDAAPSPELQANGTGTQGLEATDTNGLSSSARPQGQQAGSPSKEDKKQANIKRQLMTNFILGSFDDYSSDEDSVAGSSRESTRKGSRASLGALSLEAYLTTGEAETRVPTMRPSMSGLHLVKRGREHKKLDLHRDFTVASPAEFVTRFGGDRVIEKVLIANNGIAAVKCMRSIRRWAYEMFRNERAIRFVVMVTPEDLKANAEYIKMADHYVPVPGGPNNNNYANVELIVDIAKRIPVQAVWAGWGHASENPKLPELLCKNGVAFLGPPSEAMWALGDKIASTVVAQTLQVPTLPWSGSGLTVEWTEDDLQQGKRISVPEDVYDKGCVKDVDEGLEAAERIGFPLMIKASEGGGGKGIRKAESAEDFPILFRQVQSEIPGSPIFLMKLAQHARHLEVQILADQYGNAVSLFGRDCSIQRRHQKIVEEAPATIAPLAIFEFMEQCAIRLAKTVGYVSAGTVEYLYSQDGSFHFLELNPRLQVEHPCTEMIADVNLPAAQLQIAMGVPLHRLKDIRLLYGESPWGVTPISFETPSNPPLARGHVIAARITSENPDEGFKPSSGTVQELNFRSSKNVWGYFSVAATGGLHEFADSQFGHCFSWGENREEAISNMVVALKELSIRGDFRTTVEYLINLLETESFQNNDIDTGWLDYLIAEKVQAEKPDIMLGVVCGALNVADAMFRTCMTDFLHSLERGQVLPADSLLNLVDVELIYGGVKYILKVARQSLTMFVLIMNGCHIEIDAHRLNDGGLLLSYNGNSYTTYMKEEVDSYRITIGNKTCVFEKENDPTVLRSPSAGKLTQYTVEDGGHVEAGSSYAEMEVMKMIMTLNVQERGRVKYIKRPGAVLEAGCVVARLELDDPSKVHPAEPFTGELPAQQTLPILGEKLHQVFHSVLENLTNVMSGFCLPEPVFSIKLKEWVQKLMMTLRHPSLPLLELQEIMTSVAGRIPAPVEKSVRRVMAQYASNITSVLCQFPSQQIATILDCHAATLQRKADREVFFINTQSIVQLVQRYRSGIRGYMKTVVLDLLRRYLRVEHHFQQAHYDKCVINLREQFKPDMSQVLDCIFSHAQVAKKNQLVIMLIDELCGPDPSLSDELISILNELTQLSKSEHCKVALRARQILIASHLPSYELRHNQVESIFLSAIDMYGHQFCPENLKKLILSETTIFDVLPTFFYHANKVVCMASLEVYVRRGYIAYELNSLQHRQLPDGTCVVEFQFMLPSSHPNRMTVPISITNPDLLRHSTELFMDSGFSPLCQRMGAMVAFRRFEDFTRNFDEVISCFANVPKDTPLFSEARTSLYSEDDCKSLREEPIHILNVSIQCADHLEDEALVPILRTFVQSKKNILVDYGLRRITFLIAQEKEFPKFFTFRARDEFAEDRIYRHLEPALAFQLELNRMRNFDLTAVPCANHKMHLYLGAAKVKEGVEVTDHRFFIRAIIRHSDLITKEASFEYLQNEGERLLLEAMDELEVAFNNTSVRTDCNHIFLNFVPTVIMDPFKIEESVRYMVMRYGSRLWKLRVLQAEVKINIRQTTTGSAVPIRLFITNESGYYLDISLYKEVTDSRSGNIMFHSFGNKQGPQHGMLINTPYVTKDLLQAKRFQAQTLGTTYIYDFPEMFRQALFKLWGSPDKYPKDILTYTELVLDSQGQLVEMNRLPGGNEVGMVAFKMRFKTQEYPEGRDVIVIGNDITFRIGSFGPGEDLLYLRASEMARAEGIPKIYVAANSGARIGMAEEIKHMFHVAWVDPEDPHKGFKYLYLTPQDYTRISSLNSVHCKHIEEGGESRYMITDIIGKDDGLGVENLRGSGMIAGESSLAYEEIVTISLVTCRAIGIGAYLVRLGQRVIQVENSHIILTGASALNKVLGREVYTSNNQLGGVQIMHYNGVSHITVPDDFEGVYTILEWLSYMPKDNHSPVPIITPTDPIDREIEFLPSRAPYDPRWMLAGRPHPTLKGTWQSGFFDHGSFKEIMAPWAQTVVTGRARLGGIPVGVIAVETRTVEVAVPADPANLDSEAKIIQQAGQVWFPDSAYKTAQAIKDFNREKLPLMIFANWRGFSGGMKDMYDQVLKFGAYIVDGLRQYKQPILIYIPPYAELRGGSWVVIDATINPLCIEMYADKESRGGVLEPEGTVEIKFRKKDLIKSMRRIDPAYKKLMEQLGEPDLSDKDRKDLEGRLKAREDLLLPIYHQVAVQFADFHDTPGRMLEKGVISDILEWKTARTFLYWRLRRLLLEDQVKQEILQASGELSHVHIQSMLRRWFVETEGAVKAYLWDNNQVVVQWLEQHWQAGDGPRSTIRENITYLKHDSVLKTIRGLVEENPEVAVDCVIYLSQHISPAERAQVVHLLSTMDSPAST

| Compound | pIC50 [1] | pIC50 [2] |
| --- | --- | --- |
| Cc1nc2cc(C(=O)N3CCC4(CC3)Cc3cnn(C(C)C)c3C(=O)N4)ccc2[nH]1 [Example 1, 1′-isopropyl-1-(2-methyl-1H-benzo[d]imidazole-5-carbonyl)-4′,6′-dihydrospiro[piperidine-4,5′-pyrazolo[3,4-c]pyridin]-7′(1′H)-one] | 6.51 | 6.38 |
| CC(C)n1ncc2c1C(=O)NC1(CCN(C(=O)c3ccc4nn(C)cc4c3)CC1)C2 [Example 3, 1′-isopropyl-1-(2-methyl-2H-indazole-5-carbonyl)-4′,6′-dihydrospiro[piperidine-4,5′-pyrazolo[3,4-c]pyridin]-7′(1′H)-one] | 5.64 | 5.41 |
| Cc1cc(C(=O)N2CCC3(CC2)Cc2cnn(C(C)C)c2C(=O)N3)cc2c[nH]nc12 [Example 4] | 7.42 | 7.37 |
| CC(C)n1ncc2c1C(=O)NC1(CCN(C(=O)c3ccc4[nH]ncc4c3)CC1)C2 [Example 5] | 6.76 | 6.64 |
| CC(C)(C)n1ncc2c1C(=O)NC1(CCN(C(=O)c3ccc4n[nH]cc4c3)CC1)C2 [Example 6] | 6.52 | 6.57 |
| Cc1cc(C(=O)N2CCC3(CC2)Cc2cnn(C(C)(C)C)c2C(=O)N3)cc2cn[nH]c12 [Example 7] | 7.33 | 7.21 |
| CC(C)n1ncc2c1C(=O)NC1(CCN(C(=O)c3cnc4[nH]ccc4c3)CC1)C2 [Example 9] | 6.25 | 6.19 |
| CC(C)n1ncc2c1C(=O)NC1(CCN(C(=O)c3cnc4cc[nH]c4c3)CC1)C2 [Example 10] | 6.30 | 6.39 |
| CC(C)n1ncc2c1C(=O)NC1(CCN(C(=O)c3cc(Cl)c4[nH]ncc4c3)CC1)C2 [Example 11] | 7.14 | 7.06 |
| COc1cc(C(=O)N2CCC3(CC2)Cc2cnn(C(C)C)c2C(=O)N3)cc2[nH]ncc12 [Example 12] | 7.43 | 7.46 |
| CC(C)n1ncc2c1C(=O)NC1(CCN(C(=O)c3ccc4c(cnn4C)c3)CC1)C2 [Example 13] | 5.81 | 5.69 |
| CCc1cc(C(=O)N2CCC3(CC2)Cc2cnn(C(C)C)c2C(=O)N3)cc2cn[nH]c12 [Example 14] | 7.04 | 6.88 |
| CCc1n[nH]c2ccc(C(=O)N3CCC4(CC3)Cc3cnn(C(C)C)c3C(=O)N4)cc12 [Example 15] | 6.84 | 6.60 |
| Cc1n[nH]c2ccc(C(=O)N3CCC4(CC3)Cc3cnn(C(C)C)c3C(=O)N4)cc12 [Example 16] | 7.05 | 6.93 |
| COc1cc(C(=O)N2CCC3(CC2)Cc2cnn(C(C)C)c2C(=O)N3)nc2c(OC)cccc12 [Example 17] | 7.51 | 7.14 |
| CC(C)n1ncc2c1C(=O)NC1(CCN(C(=O)c3cc4ncccc4[nH]3)CC1)C2 [Example 18] | 6.14 | 6.18 |
| CC(C)n1ncc2c1C(=O)NC1(CCN(C(=O)c3cnc4cn[nH]c4c3)CC1)C2 [Example 19] | 5.70 | 5.83 |
| CC(C)n1ncc2c1C(=O)NC1(CCN(C(=O)c3cnc4ccccc4c3)CC1)C2 [Example 20] | 6.52 | 6.47 |
| CC(C)n1ncc2c1C(=O)NC1(CCN(C(=O)c3ccc4ncccc4c3)CC1)C2 [Example 21] | 6.47 | 6.21 |
| CC(C)n1ncc2c1C(=O)NC1(CCN(C(=O)c3ccc4cnccc4c3)CC1)C2 [Example 22] | 6.07 | 5.90 |
| CC(C)n1ncc2c1C(=O)NC1(CCN(C(=O)c3ccc4ccncc4c3)CC1)C2 [Example 23] | 6.28 | 6.21 |

| Compound | pIC50 [1] | pIC50 [2] |
| --- | --- | --- |
| CC(C)n1ncc2c1C(=O)NC1(CCN(C(=O)c3ccc4cccnc4c3)CC1)C2 [Example 24] | 6.49 | 6.16 |
| CC(C)n1ncc2c1C(=O)NC1(CCN(C(=O)c3ccc4[nH]nc(C#N)c4c3)CC1)C2 [Example 25] | 6.86 | 6.59 |
| COc1ccc2ncc(C(=O)N3CCC4(CC3)Cc3cnn(C(C)C)c3C(=O)N4)cc2c1 [Example 26] | 7.22 | 6.92 |
| CC(C)n1ncc2c1C(=O)NC1(CCN(C(=O)c3ccc4[nH]nc(C(N)=O)c4c3)CC1)C2 [Example 27] | 6.88 | 6.53 |
| COc1ccc2ccc(C(=O)N3CCC4(CC3)Cc3cnn(C(C)C)c3C(=O)N4)cc2n1 [Example 28] | 7.25 | 6.80 |
| CNc1ccc2ccc(C(=O)N3CCC4(CC3)Cc3cnn(C(C)C)c3C(=O)N4)cc2n1 [Example 29] | 8.04 | 7.48 |
| COc1nccc2ccc(C(=O)N3CCC4(CC3)Cc3cnn(C(C)C)c3C(=O)N4)cc12 [Example 30] | 7.52 | 7.01 |
| CC(C)n1ncc2c1C(=O)NC1(CCN(C(=O)c3cnc4[nH]cc(Cl)c4c3)CC1)C2 [Example 31] | 7.02 | 6.75 |
| CC(C)n1ncc2c1C(=O)NC1(CCN(C(=O)c3cnc4c(Cl)c[nH]c4c3)CC1)C2 [Example 32] | 7.25 | 6.81 |
| CNc1nc2cc(C(=O)N3CCC4(CC3)Cc3cnn(C(C)C)c3C(=O)N4)ccc2[nH]1 [Example 33] | 6.97 | 6.28 |
| CC(C)n1ncc2c1C(=O)NC1(CCN(C(=O)c3ccc4[nH]nc(Cl)c4c3)CC1)C2 [Example 34] | 7.30 | 6.94 |
| CC(C)n1ncc2c1C(=O)NC1(CCN(C(=O)c3ccc4[nH]c(N)nc4c3)CC1)C2 [Example 35] | 7.04 | 6.31 |
| CNc1nccc2ccc(C(=O)N3CCC4(CC3)Cc3cnn(C(C)C)c3C(=O)N4)cc12 [Example 36] | 7.55 | 7.17 |
| CNc1n[nH]c2ccc(C(=O)N3CCC4(CC3)Cc3cnn(C(C)C)c3C(=O)N4)cc12 [Example 37] | 6.90 | 6.52 |
| CNc1cc2ccc(C(=O)N3CCC4(CC3)Cc3cnn(C(C)C)c3C(=O)N4)cc2cn1 [Example 38] | 6.97 | 6.44 |
| Cc1nc2cc(C(=O)N3CCC4(CC3)Cc3cn(C(C)C)nc3C(=O)N4)ccc2[nH]1 [Example 40] | 6.75 | 6.18 |
| Cc1cc(C(=O)N2CCC3(CC2)Cc2cn(C(C)C)nc2C(=O)N3)cc2cn[nH]c12 [Example 42] | 7.54 | 7.17 |
| Cc1cc(C(=O)N2CCC3(CC2)Cc2cn(C(C)(C)C)nc2C(=O)N3)cc2cn[nH]c12 [Example 44] | 8.00 | 7.59 |
| COc1ccc2cc(C(=O)N3CCC4(CC3)Cc3cn(C(C)(C)C)nc3C(=O)N4)ccc2c1 [Example 46] | 8.28 | 7.44 |
| COc1ccc2ncc(C(=O)N3CCC4(CC3)Cc3cn(C(C)(C)C)nc3C(=O)N4)cc2c1 [Example 48] | 8.04 | 7.52 |
| COc1ccc2ccc(C(=O)N3CCC4(CC3)Cc3cn(C(C)(C)C)nc3C(=O)N4)cc2c1 [Example 49] | 8.42 | 8.07 |
